System: LG0567-F671-PDC multi-cell spheroid viability
Assay: Anticancer human tumor LG0567-F671-PDC patient-derived lung adenocarcinoma cell line growth inhibition [IpAb]
Conditions: for IC50: curve of first compound; for viability, T/C: stronger effect = lower value
From the text: Combinatorial screen of targeted agents with ipatasertib and abemaciclib in multi-cell type tumor spheroids
A high-throughput screen of multi-cell type tumor spheroids was designed to identify active combinations of targeted small molecules and ipatasertib or abemaciclib. Complex spheroids include a stromal component modeled by human endothelial cells (HUVEC) and fibroblasts modeled by human mesenchymal stem cells (MSCs). The concentration ranges selected for each drug and investigational agent were based upon clinically achievable concentrations if the clinical Cmax of the agent was known.
Compounds. The drugs and investigational agents: ipatasertib (NSC767898), abemaciclib(NSC768073), selumetinib (NSC741078), trametinib (758246), adavosertib (NSC754352), everolimus (NSC733504), sapanisertib (NSC764658), vemurafenib (NSC761431), venetoclax (NSC766270), copanlisib (NSC809693), apelisib (NSC765974), palbociblib (NSC758247), vemurafenib (NSC761431), dabrafenib (NSC764134), ravoxertinib (NSC781343), BMS-387032 (NSC767048), sotorasib (NSC818433), talazoparib (NSC767125) and afursertib (NSC778305), were obtained from the National Cancer Institute (NCI) Developmental Therapeutics Program Chemical Repository. The FDA-approved anticancer drug set is available from the NCI Developmental Therapeutics Program. […] The stock solutions were prepared in dimethyl sulfoxide (DMSO, Sigma-Aldrich, St. Louis, MO, cat. D2650) at 800-fold the tested concentration and stored at -70 degrees C prior to their use. All drugs and investigational agents were tested over a range starting from a high concentration at or near the clinical Cmax and decreasing in half-log increments. If the clinical Cmax for an agent had not been determined, the highest concentration tested was 10 microM.
NCI60 Cell Culture. NCI60 cell lines were obtained from the NCI Developmental Therapeutics Program Tumor Repository. For each lot of cells, the Repository performed Applied Biosystems AmpFLSTR Identifiler testing with PCR amplification to confirm consistency with the published Identifier STR profile for each cell line. Cells were kept in continuous culture for no more than 20 passages. The optimal seeding densities for each of the cell lines at each time point assessed were determined prior to performing the concentration response studies. Briefly, the NCI60 human tumor lines were grown as monolayers in RPMI 1640 medium supplemented with 10% FBS and 2 mmol/L L-glutamine.
An additional 9 lines were from the NCI60 cell line panel including MDA-MB-231 breast carcinoma, MDA-MB-468 breast carcinoma, MCF7 breast carcinoma, Hs578T breast carcinoma, MALME-3M melanoma, SK-MEL-2 melanoma, SK-OV-3 ovarian carcinoma, DU-145 prostate carcinoma, PC-3 prostate carcinoma, all cell lines along with major genetic alterations are listed on Table 2. Pooled donor human umbilical vein endothelial cells (HUVEC, Lonza, cat. CC-2519) and human mesenchymal stem cells (hMSC, Lonza, cat. PT-2501) were purchased from Lonza (Walkersville, MD).
PDMR cell lines were grown in complete medium (DC medium): Dulbecco's modified Eagle's medium (DMEM)/F12 supplemented with 5% fetal bovine serum (FBS), 2 mM L-glutamine, 100 U/mL penicillin and 100 µg/ml streptomycin, 0.4 µg/ml hydrocortisone, 10 ng/ml epidermal growth factor (EGF) recombinant human protein, 24 µg/mL adenine, and 0.1 mg/mL primocin. During culture from frozen stock vials, PDMR cells were cultured in the same medium containing 10 µM Y-27632 (see Table 3). The PDCs were cultured in complete DMEM/F12 media without 10 microM Y-27632 dihydrochloride for at least two passages prior to the screen. The pooled donor HUVEC and hMSC were cultured in endothelial cell growth medium 2 (PromoCell, Heidelberg, Germany, cat. C-22011) and mesenchymal stem cell growth medium 2 (PromoCell, cat. C-28009), respectively. For all experiments, HUVEC and hMSC were used at passages </=5.
[…]

[1] = second compound 0.1 µM, first compound 0.0316 µM
[2] = second compound 0.1 µM, first compound 0.1 µM
[3] = second compound 0.1 µM, first compound 0.316 µM
[4] = second compound 0.1 µM, first compound 1 µM
[5] = second compound 0.316 µM, first compound 0.0316 µM
[6] = second compound 0.316 µM, first compound 0.1 µM
[7] = second compound 0.316 µM, first compound 0.316 µM
[8] = second compound 0.316 µM, first compound 1 µM
[9] = second compound 1 µM, first compound 0.0316 µM
[10] = second compound 1 µM, first compound 0.1 µM
[11] = second compound 1 µM, first compound 0.316 µM
[12] = second compound 1 µM, first compound 1 µM
[13] = second compound 3.16 µM, first compound 0.0316 µM
[14] = second compound 3.16 µM, first compound 0.1 µM
[15] = second compound 3.16 µM, first compound 0.316 µM
[16] = second compound 3.16 µM, first compound 1 µM
[17] = second compound 10 µM, first compound 0.0316 µM
[18] = second compound 10 µM, first compound 0.1 µM
[19] = second compound 10 µM, first compound 0.316 µM
[20] = second compound 10 µM, first compound 1 µM
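Also: viability read after 7 days of drug exposure.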
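For viability, T/C in this document: 100% = DMSO vehicle control luminescence.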

Compound: CC(=O)c1c(C)c2cnc(Nc3ccc(N4CCNCC4)cn3)nc2n(C2CCCC2)c1=O + CC(C)NCC(C(=O)N1CCN(c2ncnc3c2C(C)CC3O)CC1)c1ccc(Cl)cc1
- IC50 (second compound 0.1 µM): > 0.3 µM
- IC50 (second compound 0.316 µM): > 0.3 µM
- IC50 (second compound 1 µM): > 0.3 µM
- IC50 (second compound 3.16 µM): > 0.3 µM
- IC50 (second compound 10 µM): > 0.3 µM
- viability, T/C (second compound 0.1 µM, first compound 0.000949 µM): 89.3%
- viability, T/C (second compound 0.1 µM, first compound 0.003 µM): 84.7%
- viability, T/C (second compound 0.1 µM, first compound 0.00949 µM): 68.9%
- viability, T/C (second compound 0.1 µM, first compound 0.03 µM): 69.5%
- viability, T/C (second compound 0.1 µM, first compound 0.0949 µM): 67.7%
- viability, T/C (second compound 0.1 µM, first compound 0.3 µM): 75.6%
- viability, T/C (second compound 0.316 µM, first compound 0.000949 µM): 66.5%
- viability, T/C (second compound 0.316 µM, first compound 0.003 µM): 71.5%
- viability, T/C (second compound 0.316 µM, first compound 0.00949 µM): 69.7%
- viability, T/C (second compound 0.316 µM, first compound 0.03 µM): 61.3%
- viability, T/C (second compound 0.316 µM, first compound 0.0949 µM): 58.1%
- viability, T/C (second compound 0.316 µM, first compound 0.3 µM): 62.5%
- viability, T/C (second compound 1 µM, first compound 0.000949 µM): 76.3%
- viability, T/C (second compound 1 µM, first compound 0.003 µM): 73.6%
- viability, T/C (second compound 1 µM, first compound 0.00949 µM): 78.9%
- viability, T/C (second compound 1 µM, first compound 0.03 µM): 66%
- viability, T/C (second compound 1 µM, first compound 0.0949 µM): 63.1%
- viability, T/C (second compound 1 µM, first compound 0.3 µM): 75.2%
- viability, T/C (second compound 3.16 µM, first compound 0.000949 µM): 61.2%
- viability, T/C (second compound 3.16 µM, first compound 0.003 µM): 80.1%
- viability, T/C (second compound 3.16 µM, first compound 0.00949 µM): 74.2%
- viability, T/C (second compound 3.16 µM, first compound 0.03 µM): 69.1%
- viability, T/C (second compound 3.16 µM, first compound 0.0949 µM): 68.4%
- viability, T/C (second compound 3.16 µM, first compound 0.3 µM): 69.2%
- viability, T/C (second compound 10 µM, first compound 0.000949 µM): 71.7%
- viability, T/C (second compound 10 µM, first compound 0.003 µM): 84.8%
- viability, T/C (second compound 10 µM, first compound 0.00949 µM): 79.3%
- viability, T/C (second compound 10 µM, first compound 0.03 µM): 59.6%
- viability, T/C (second compound 10 µM, first compound 0.0949 µM): 60.3%
- viability, T/C (second compound 10 µM, first compound 0.3 µM): 58.4%

Compound: COc1c(OCCCN2CCOCC2)ccc2c3n(c(=NC(=O)c4cnc(N)nc4)nc12)CCN3 + CC(C)NCC(C(=O)N1CCN(c2ncnc3c2C(C)CC3O)CC1)c1ccc(Cl)cc1
- IC50 (second compound 0.1 µM): 0.0537 µM
- IC50 (second compound 0.316 µM): 0.0434 µM
- IC50 (second compound 1 µM): 0.0118 µM
- IC50 (second compound 3.16 µM): 0.0224 µM
- IC50 (second compound 10 µM): 0.00624 µM
- viability, T/C (second compound 0.1 µM, first compound 0.00316 µM): 99.6%
- viability, T/C (second compound 0.1 µM, first compound 0.01 µM): 85.8%
- viability, T/C [1]: 54.7%
- viability, T/C [2]: 44%
- viability, T/C [3]: 32.2%
- viability, T/C [4]: 29.4%
- viability, T/C (second compound 0.316 µM, first compound 0.00316 µM): 82.8%
- viability, T/C (second compound 0.316 µM, first compound 0.01 µM): 75.8%
- viability, T/C [5]: 47.4%
- viability, T/C [6]: 42.6%
- viability, T/C [7]: 28.5%
- viability, T/C [8]: 19.9%
- viability, T/C (second compound 1 µM, first compound 0.00316 µM): 72.7%
- viability, T/C (second compound 1 µM, first compound 0.01 µM): 49.8%
- viability, T/C [9]: 41%
- viability, T/C [10]: 30%
- viability, T/C [11]: 30.5%
- viability, T/C [12]: 22.6%
- viability, T/C (second compound 3.16 µM, first compound 0.00316 µM): 71.4%
- viability, T/C (second compound 3.16 µM, first compound 0.01 µM): 58.5%
- viability, T/C [13]: 46.5%
- viability, T/C [14]: 34.5%
- viability, T/C [15]: 26.7%
- viability, T/C [16]: 18.4%
- viability, T/C (second compound 10 µM, first compound 0.00316 µM): 57.3%
- viability, T/C (second compound 10 µM, first compound 0.01 µM): 42.2%
- viability, T/C [17]: 39%
- viability, T/C [18]: 30.9%
- viability, T/C [19]: 18.9%
- viability, T/C [20]: 18.8%

Compound: Cc1nc(NC(=O)N2CCCC2C(N)=O)sc1-c1ccnc(C(C)(C)C(F)(F)F)c1 (stereo not given) + CC(C)NCC(C(=O)N1CCN(c2ncnc3c2C(C)CC3O)CC1)c1ccc(Cl)cc1
- IC50 (second compound 0.1 µM): 5.19 µM
- IC50 (second compound 0.316 µM): 0.924 µM
- IC50 (second compound 1 µM): 0.257 µM
- IC50 (second compound 3.16 µM): 0.341 µM
- IC50 (second compound 10 µM): < 0.0316 µM
- viability, T/C [1]: 85.3%
- viability, T/C [2]: 86.2%
- viability, T/C [3]: 71%
- viability, T/C [4]: 42.8%
- viability, T/C (second compound 0.1 µM, first compound 3.16 µM): 72%
- viability, T/C (second compound 0.1 µM, first compound 10 µM): 39.7%
- viability, T/C [5]: 63.8%
- viability, T/C [6]: 72%
- viability, T/C [7]: 44.2%
- viability, T/C [8]: 56.8%
- viability, T/C (second compound 0.316 µM, first compound 3.16 µM): 40.2%
- viability, T/C (second compound 0.316 µM, first compound 10 µM): 35.9%
- viability, T/C [9]: 66.1%
- viability, T/C [10]: 68.2%
- viability, T/C [11]: 46.2%
- viability, T/C [12]: 34.2%
- viability, T/C (second compound 1 µM, first compound 3.16 µM): 35.6%
- viability, T/C (second compound 1 µM, first compound 10 µM): 29.8%
- viability, T/C [13]: 56%
- viability, T/C [14]: 50.9%
- viability, T/C [15]: 48.7%
- viability, T/C [16]: 44.5%
- viability, T/C (second compound 3.16 µM, first compound 3.16 µM): 41.1%
- viability, T/C (second compound 3.16 µM, first compound 10 µM): 21.4%
- viability, T/C [17]: 50.5%
- viability, T/C [18]: 53.1%
- viability, T/C [19]: 38.6%
- viability, T/C [20]: 46.2%
- viability, T/C (second compound 10 µM, first compound 3.16 µM): 37.8%
- viability, T/C (second compound 10 µM, first compound 10 µM): 25.8%

Reference: PubChem BioAssay AID2060332 (Molecular Pharmacology Branch, DTP, NCI, 2025)
